This assay concerns the target T1, thromboxane A2 receptors (TPα) of human platelets (Homo sapiens, UniProt P21731).
T1 construct: endogenous in cells; host or cells: human platelets
T1 sequence (P21731 1-343): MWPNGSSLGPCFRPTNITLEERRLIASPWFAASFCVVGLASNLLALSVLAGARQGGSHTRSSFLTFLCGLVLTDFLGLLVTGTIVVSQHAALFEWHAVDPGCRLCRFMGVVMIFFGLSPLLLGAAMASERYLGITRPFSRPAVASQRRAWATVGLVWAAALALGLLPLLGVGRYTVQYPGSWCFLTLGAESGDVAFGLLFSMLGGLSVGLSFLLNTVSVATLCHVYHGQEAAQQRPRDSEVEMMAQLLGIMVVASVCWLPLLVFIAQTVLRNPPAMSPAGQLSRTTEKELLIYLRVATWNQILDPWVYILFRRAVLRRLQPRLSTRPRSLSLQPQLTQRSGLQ
The assay can be described thus: Binding test: displacement of [3H]SQ-29.548 from human platelet thromboxane A2 receptors. Conditions: for inhibition at 1 µM: read-out: Affinity: percent of [3H]SQ-29.548 specifically substituted by the examined compound, compound 10^-6 M; for inhibition at 0.1 µM: read-out: Affinity: percent of [3H]SQ-29.548 specifically substituted by the examined compound, compound 10^-7 M. The source says:
To operate a first selection, the capacity of these compounds to displace in a specific way a tritium ligand, the [^3H]
Cozzi P., Giordani A., Menichincheri M., Pillan A., Pinciroli V., Rossi A., Tonani R., Volpi D., Tamburin M., Ferrario R., Fusar D., Salvati P.,—Agents combining thromboxane receptor antagonism with thromboxane synthase inhibition:[[[2-(1H-imidazol-1-yl)ethylidene]amino]oxy]alkanoic acids.—J. Med. Chem., 1994, 37, 3588-3604.
In general terms: Loss of bound radioactivity is the signal in a displacement assay; it reports binding, not function.

Setting [1] is: read-out: IC 50: concentration required for replacing 50% of [3H]SQ-29.548 bound to receptors TPα.

Each structure is given as a SMILES string. Like-named read-outs stand apart in the source and are kept apart here.

With `Cc1cccc(Nc2ccc([N+](=O)[O-])cc2S(=O)(=O)NC(=O)NC(C)C)c1C` [Compound 49], the IC50 amounted to 2 nM, the inhibition at 1 µM is 98.3% and the inhibition at 0.1 µM was 94.9%.

On to `Cc1ccc(Nc2ccc([N+](=O)[O-])cc2S(=O)(=O)NC(=O)NC(C)C)cc1` [Compound 50], for which the “Affinity: percent of [3H]SQ-29.548 specifically substituted by the examined compound, 10^-6M” value (“Affinity: percent … 10^-6M” for short) turned out to be 95.7% and the “Affinity: percent of [3H]SQ-29.548 specifically substituted by the examined compound, 10^-7M” value (“Affinity: percent … 10^-7M” below) turned out to be 76.0%.

As for `Cc1cccc(Nc2ccc([N+](=O)[O-])cc2S(=O)(=O)NC(=NC#N)NC(C)(C)C)c1` [Compound 51], the “Affinity: percent … 10^-6M” value is 64.7%.

As to `Cc1ccccc1Nc1ccc([N+](=O)[O-])cc1S(=O)(=O)NC(=O)NC(C)(C)C` [Compound 52], the “Affinity: percent … 10^-6M” value stood at 99.0% and the “Affinity: percent … 10^-7M” value was 93.9%. The IC50 under setting [1] is 2.8 nM.

Turning to `CC(C)NC(=O)NS(=O)(=O)c1cc([N+](=O)[O-])ccc1Nc1cccc(C(=O)O)c1` [Compound 53], the “Affinity: percent … 10^-6M” value is listed as 36.5%.

On to `CC(C)NC(=O)NS(=O)(=O)c1cc([N+](=O)[O-])ccc1NC1CC2CCC1C2` (stereo not shown) [Compound 54], for which the “Affinity: percent … 10^-6M” value stood at 91.7%.

For `CC(C)(C)NC(=O)NS(=O)(=O)c1cc([N+](=O)[O-])ccc1NC1CC2CCC1C2` (stereo not shown) [Compound 55], the IC50 is 3.4 nM, the inhibition at 1 µM came out at 98.2% and the inhibition at 0.1 µM came out at 93.3%.

As for `CC(C)NC(=O)NS(=O)(=O)c1cc([N+](=O)[O-])ccc1NC(C)(C)C` [Compound 56], the “Affinity: percent … 10^-6M” value was 0.0%.

With `CCCCCCNc1ccc([N+](=O)[O-])cc1S(=O)(=O)NC(=O)NC(C)C` [Compound 57], the “Affinity: percent … 10^-6M” value was 67.0%.

In the case of `CC(C)NC(=O)NS(=O)(=O)c1cc([N+](=O)[O-])ccc1NC12CC3CC(CC(C3)C1)C2` [Compound 58], the “Affinity: percent … 10^-6M” value was determined as 83.2%.

For `CCCCCCNc1ccc([N+](=O)[O-])cc1S(=O)(=O)NC(=O)NC(C)(C)C` [Compound 59], the “Affinity: percent … 10^-6M” value is reported as 92.2%.

On to `CCCCCCCCCCNc1ccc([N+](=O)[O-])cc1S(=O)(=O)NC(=O)NC(C)C` [Compound 60], for which the “Affinity: percent … 10^-6M” value is recorded as 79.1%.

`CCCCCNC(=O)NS(=O)(=O)c1cc([N+](=O)[O-])ccc1NC1CCCCC1` [Compound 61]: the inhibition at 1 µM amounted to 98.6% and the inhibition at 0.1 µM worked out at 94.8%. Besides, the IC50 under setting [1] is 1.1 nM.

Turning to `CC(C)NC(=O)NS(=O)(=O)c1cc([N+](=O)[O-])ccc1N1CCOCC1` [Compound 62], the “Affinity: percent … 10^-6M” value worked out at 3.7%.

As to `CC(C)(C)NC(=O)NS(=O)(=O)c1cc([N+](=O)[O-])ccc1N1CCOCC1` [Compound 63], the “Affinity: percent … 10^-6M” value was found to be 7.5%.

`CC(C)NC(=O)NS(=O)(=O)c1cc([N+](=O)[O-])ccc1N1CCCCCC1` [Compound 64]: the “Affinity: percent … 10^-6M” value came to 57.8%.

Turning to `O=C(Nc1ccccc1)NS(=O)(=O)c1cc([N+](=O)[O-])ccc1NC1CCCCC1` [Compound 65], the “Affinity: percent … 10^-6M” value was 46.6%.

Consider `CC(C)NC(=O)NS(=O)(=O)c1cc(C#N)ccc1NC1CC2CCC1C2` (stereo not shown) [Compound 66], for which the “Affinity: percent … 10^-6M” value is 49.6%.

With `Cc1ccc(Nc2ccc([N+](=O)[O-])cc2S(=O)(=O)NC(=O)NC(C)(C)C)cc1` [Compound 67], the “Affinity: percent … 10^-6M” value is on record as 98.3% and the “Affinity: percent … 10^-7M” value is recorded as 95.8%. Also, the IC50 under setting [1] was found to be 1.3 nM.

`CC(C)NC(=O)NS(=O)(=O)c1cc([N+](=O)[O-])ccc1NC1C=CCCC1` (stereo not shown) [Compound 68]: the “Affinity: percent … 10^-6M” value is reported as 93.2% and the “Affinity: percent … 10^-7M” value is given as 67.4%.

As for `CC(C)NC(=O)NS(=O)(=O)c1cc(F)ccc1NC1C=CCCC1` (stereo not shown) [Compound 69], the “Affinity: percent … 10^-6M” value amounted to 13.2%.

Regarding `CC(C)NC(=O)NS(=O)(=O)c1cc(Cl)ccc1NC1C=CCCC1` (stereo not shown) [Compound 70], the “Affinity: percent … 10^-6M” value was found to be 63.8%.

In the case of `CC(C)NC(=O)NS(=O)(=O)c1cc(Br)ccc1NC1C=CCCC1` (stereo not shown) [Compound 71], the “Affinity: percent … 10^-6M” value is 77.8%.

For `CC(C)NC(=O)NS(=O)(=O)c1cc(I)ccc1NC1C=CCCC1` (stereo not shown) [Compound 72], the “Affinity: percent … 10^-6M” value is on record as 86.5% and the “Affinity: percent … 10^-7M” value is recorded as 52.7%.

As to `Cc1cccc(Nc2ccc([N+](=O)[O-])cc2S(=O)(=O)NC(=O)NC(C)(C)C)c1C` [Compound 73], the IC50 is 1.2 nM, the inhibition at 1 µM came to 98.3% and the inhibition at 0.1 µM was 95.6%.

Take `CC(C)(C)NC(=NC#N)NS(=O)(=O)c1cc([N+](=O)[O-])ccc1NC1CCCCC1` [Compound 74]: the “Affinity: percent … 10^-6M” value was found to be 90.9%.

Consider `CC(C)NC(=O)NS(=O)(=O)c1cc([N+](=O)[O-])ccc1N[C@@H](C)c1ccccc1` [Compound 77], for which the “Affinity: percent … 10^-6M” value came to 79.4%.

For the molecule `C[C@H](Nc1ccc([N+](=O)[O-])cc1S(=O)(=O)NC(=O)NC(C)(C)C)c1ccccc1` [Compound 78], the IC50 came out at 4.2 nM, the inhibition at 1 µM was found to be 95.3% and the inhibition at 0.1 µM turned out to be 71.6%.

For the molecule `CC(C)NC(=O)NS(=O)(=O)c1cc([N+](=O)[O-])ccc1N[C@H](C)c1ccccc1` [Compound 79], the “Affinity: percent … 10^-6M” value came to 96.6%.

For the molecule `C[C@@H](Nc1ccc([N+](=O)[O-])cc1S(=O)(=O)NC(=O)NC(C)(C)C)c1ccccc1` [Compound 80], the IC50 is 2.4 nM, the inhibition at 1 µM came out at 98.6% and the inhibition at 0.1 µM was found to be 97.9%.

On to `CCCNC(=O)NS(=O)(=O)c1cc([N+](=O)[O-])ccc1NC1CCCCC1` [Compound 81], for which the IC50 was 57.8 nM, the inhibition at 1 µM amounted to 93.3% and the inhibition at 0.1 µM turned out to be 65%.

As for `CCCCNC(=O)NS(=O)(=O)c1cc([N+](=O)[O-])ccc1NC1CCCCC1` [Compound 82], the IC50 was 4.5 nM, the inhibition at 1 µM came to 98.5% and the inhibition at 0.1 µM was determined as 98%.

In the case of `CCCCCCNC(=O)NS(=O)(=O)c1cc([N+](=O)[O-])ccc1NC1CCCCC1` [Compound 83], the IC50 came out at 4.5 nM, the inhibition at 1 µM worked out at 98.5% and the inhibition at 0.1 µM worked out at 92.7%.

On to `CCCCCCCNC(=O)NS(=O)(=O)c1cc([N+](=O)[O-])ccc1NC1CCCCC1` [Compound 84], for which the IC50 was found to be 23.9 nM, the inhibition at 1 µM came out at 96.9% and the inhibition at 0.1 µM is 73.7%.

Take `CCCCCCCCNC(=O)NS(=O)(=O)c1cc([N+](=O)[O-])ccc1NC1CCCCC1` [Compound 85]: the IC50 turned out to be 107 nM, the inhibition at 1 µM was determined as 92.9% and the inhibition at 0.1 µM was determined as 42.5%.

On to `Cc1cc(C)c(Nc2ccc([N+](=O)[O-])cc2S(=O)(=O)NC(=O)NC(C)C)c(C)c1` [Compound 86], for which the IC50 was determined as 1.83 nM, the inhibition at 1 µM turned out to be 98.4% and the inhibition at 0.1 µM amounted to 94.3%.

Turning to `Cc1ccc(Nc2ccc([N+](=O)[O-])cc2S(=O)(=O)NC(=O)NC(C)C)cc1C` [Compound 87], the IC50 came to 18.1 nM, the inhibition at 1 µM was determined as 95.6% and the inhibition at 0.1 µM amounted to 76%.

For the molecule `Cc1cc(C)cc(Nc2ccc([N+](=O)[O-])cc2S(=O)(=O)NC(=O)NC(C)C)c1` [Compound 88], the IC50 stood at 16.2 nM, the inhibition at 1 µM came out at 95.4% and the inhibition at 0.1 µM amounted to 82%.

In the case of `Cc1ccc(C)c(Nc2ccc([N+](=O)[O-])cc2S(=O)(=O)NC(=O)NC(C)C)c1` [Compound 89], the IC50 came to 11.5 nM, the inhibition at 1 µM is 96.6% and the inhibition at 0.1 µM is 83.5%.

Consider `Cc1ccc(Nc2ccc([N+](=O)[O-])cc2S(=O)(=O)NC(=O)NC(C)C)c(C)c1` [Compound 90], for which the IC50 turned out to be 5.46 nM, the inhibition at 1 µM is 96.9% and the inhibition at 0.1 µM was 88.6%.

On to `Cc1cccc(C)c1Nc1ccc([N+](=O)[O-])cc1S(=O)(=O)NC(=O)NC(C)C` [Compound 91], for which the IC50 turned out to be 3.31 nM, the inhibition at 1 µM was 97.3% and the inhibition at 0.1 µM was determined as 90.8%.

For `CCCCCNC(=O)NS(=O)(=O)c1cc([N+](=O)[O-])ccc1Nc1c(C)cc(C)cc1C` [Compound 92], the IC50 came to 1.62 nM, the inhibition at 1 µM was 98.8% and the inhibition at 0.1 µM was found to be 95.2%.

The values above are taken from patent US6818765B1, “Benzene-sulphonamide derivatives and their uses” (Universite de Liege, priority 1999, dated 2004).
